Results as given in patent US20250170099A1, “TREATMENT OF POSTNATAL DEPRESSION” (GH RESEARCH IRELAND LIMITED, priority 2022, published 2025).

Test system: patients with postpartum depression (PPD)
Test: Open-label clinical trial of inhaled 5-MeO-DMT in postpartum depression (one patient, IDR 6 mg then 12 mg)
Procedure: The single-arm, open-label clinical trial will involve 15 adult female patients with clinically diagnosed postpartum depression (PPD).
The second dose (12 mg) will only be administered if: • a. […] The 6 mg dose was safe and well-tolerated according to the investigator, • c. Any psychoactive effects (PsE) of the prior dose have subsided, and • d. Pre-dose vital parameters and forced expiratory volume in one second (FEV1) are in normal range, or if outside of the normal range, are not clinically significant according to the investigator. • 3. Similarly, a third dose (18 mg) will only be administered if: • a. […] The 12 mg dose was safe and well-tolerated according to the investigator, and • c. Any PsE of the prior dose have subsided, and • d. Pre-dose vital parameters and forced expiratory volume in one second (FEV1) are in normal range, or if outside of the normal range, are not clinically significant according to the investigator.
The patients will be assessed for a peak psychedelic experience (based on a patient-scored visual analogue scale, the PE scale), sedation, and other endpoints after dosing. Follow-up visits are planned for Day 1, and Day 7 after the dosing day.

COc1ccc2[nH]cc(CCN(C)C)c2c1 [5-MeO-DMT]
MADRS apparent sadness improvement (2 hr): 5 | MADRS apparent sadness score (2 hr): 0 | MADRS concentration difficulties improvement (2 hr): 0 | MADRS concentration difficulties score (2 hr): 0 | MADRS inability to feel improvement (2 hr): 3 | MADRS inability to feel score (2 hr): 0 | MADRS inner tension improvement (2 hr): 5 | MADRS inner tension score (2 hr): 0 | MADRS lassitude improvement (2 hr): 3 | MADRS lassitude score (2 hr): 0 | MADRS pessimistic thoughts improvement (2 hr): 4 | MADRS pessimistic thoughts score (2 hr): 0 | MADRS reduced appetite improvement (2 hr): 0 | MADRS reduced appetite score (2 hr): 0 | MADRS reduced sleep improvement (2 hr): 0 | MADRS reduced sleep score (2 hr): 5 | MADRS reported sadness improvement (2 hr): 4 | MADRS reported sadness score (2 hr): 0 | MADRS suicidal thoughts improvement (2 hr): 0 | MADRS suicidal thoughts score (2 hr): 0 | adverse events (abdominal pain, headache) (Day 0): mild, short-lasting and resolved spontaneously | BPRS anxiety improvement (Day 1): 6 | BPRS anxiety score (Day 1): 1 | BPRS blunted affect improvement (Day 1): 0 | BPRS blunted affect score (Day 1): 1 | BPRS conceptual disorganization improvement (Day 1): 0 | BPRS conceptual disorganization score (Day 1): 1 | BPRS depressive mood improvement (Day 1): 5 | BPRS depressive mood score (Day 1): 1 | BPRS disorientation improvement (Day 1): 0 | BPRS disorientation score (Day 1): 1 | BPRS emotional withdrawal improvement (Day 1): 4 | BPRS emotional withdrawal score (Day 1): 1 | BPRS excitement improvement (Day 1): 1 | BPRS excitement score (Day 1): 1 | BPRS grandiosity improvement (Day 1): 0 | BPRS grandiosity score (Day 1): 1 | BPRS guilt feelings improvement (Day 1): 5 | BPRS guilt feelings score (Day 1): 1 | BPRS hallucinatory behaviour improvement (Day 1): 0 | BPRS hallucinatory behaviour score (Day 1): 1 | BPRS hostility improvement (Day 1): 0 | BPRS hostility score (Day 1): 1 | BPRS mannerisms and posturing improvement (Day 1): 0 | BPRS mannerisms and posturing score (Day 1): 1 | BPRS motor retardation improvement (Day 1): 0 | BPRS motor retardation score (Day 1): 1 | BPRS somatic concern improvement (Day 1): 5 | BPRS somatic concern score (Day 1): 1 | BPRS suspiciousness improvement (Day 1): 0 | BPRS suspiciousness score (Day 1): 1 | BPRS tension score (Day 1): 1 | BPRS uncooperativeness improvement (Day 1): 0 | BPRS uncooperativeness score (Day 1): 1 | BPRS unusual thought content improvement (Day 1): 0 | BPRS unusual thought content score (Day 1): 1 | MADRS apparent sadness improvement (Day 1): 5 | MADRS apparent sadness score (Day 1): 0 | MADRS concentration difficulties improvement (Day 1): 0 | MADRS concentration difficulties score (Day 1): 0 | MADRS inability to feel improvement (Day 1): 3 | MADRS inability to feel score (Day 1): 0 | MADRS inner tension improvement (Day 1): 5 | MADRS inner tension score (Day 1): 0 | MADRS lassitude improvement (Day 1): 3 | MADRS lassitude score (Day 1): 0 | MADRS pessimistic thoughts improvement (Day 1): 4 | MADRS pessimistic thoughts score (Day 1): 0 | MADRS reduced appetite improvement (Day 1): 0 | MADRS reduced appetite score (Day 1): 0 | MADRS reduced sleep improvement (Day 1): 5 | MADRS reduced sleep score (Day 1): 0 | MADRS reported sadness improvement (Day 1): 4 | MADRS reported sadness score (Day 1): 0 | MADRS suicidal thoughts improvement (Day 1): 0 | MADRS suicidal thoughts score (Day 1): 0 | BIMF functional domain Adjustment score (Day 7): 6 | BIMF functional domain Infant Care score (Day 7): 12 | BIMF functional domain Management score (Day 7): 33 | BIMF functional domain Mother-Child Interaction score (Day 7): 17 | BIMF functional domain Psychological Well-being score (Day 7): 53 | BIMF functional domain Self-Care score (Day 7): 13 | BIMF functional domain Social Support score (Day 7): 18 | BIMF item 1 score (I am a good mother) (Day 7): 6 | BIMF item 2 score (I feel rested) (Day 7): 2 | BIMF item 3 score (I am comfortable with the way I've chosen to feed my baby) (Day 7): 6 | BIMF item 4 score (My baby and I understand each other) (Day 7): 5 | BIMF item 5 score (I am able to relax and enjoy time with my baby) (Day 7): 6 | BIMF item 6 score (There are people in my life that I can trust to care for my baby) (Day 7): 6 | BIMF item 8 score (I am getting enough adult interaction) (Day 7): 6 | BIMF item 9 score (I am getting enough encouragement from other people) (Day 7): 6 | BIMF item 10 score (I trust my own feelings (instincts)) (Day 7): 6 | BIMF item 11 score (I take a little time each week to do something for myself) (Day 7): 6 | BIMF item 12 score (I am taking good care of my baby's physical needs) (Day 7): 6 | BIMF item 13 score (I am taking good care of my physical needs) (Day 7): 5 | BIMF item 14 score (I make good descisions about my baby's health and well being) (Day 7): 6 | BIMF item 15 score (My baby and I are getting into a routine) (Day 7): 6 | BIMF item 16 score (I worry about how other people judge me) (Day 7): 5 | BIMF item 17 score (I am able to take care of my baby and my other responsibilites) (Day 7): 5 | BIMF item 18 score (Anxiety or worry often interferes with my mothering ability) (Day 7): 1 | BIMF item 19 score (As time goes on, I am getting better at taking care of my baby) (Day 7): 1 | BIMF item 20 score (I am satisfied with the job I am doing as a new mother) (Day 7): 5 | BPRS anxiety improvement (Day 7): 6 | BPRS anxiety score (Day 7): 1 | BPRS blunted affect improvement (Day 7): 0 | BPRS blunted affect score (Day 7): 1 | BPRS conceptual disorganization improvement (Day 7): 0 | BPRS conceptual disorganization score (Day 7): 1 | BPRS depressive mood improvement (Day 7): 5 | BPRS depressive mood score (Day 7): 1 | BPRS disorientation improvement (Day 7): 0 | BPRS disorientation score (Day 7): 1 | BPRS emotional withdrawal improvement (Day 7): 4 | BPRS emotional withdrawal score (Day 7): 1 | BPRS excitement improvement (Day 7): 1 | BPRS excitement score (Day 7): 1 | BPRS grandiosity improvement (Day 7): 0 | BPRS grandiosity score (Day 7): 1 | BPRS guilt feelings improvement (Day 7): 5 | BPRS guilt feelings score (Day 7): 1 | BPRS hallucinatory behaviour improvement (Day 7): 0 | BPRS hallucinatory behaviour score (Day 7): 1 | BPRS hostility improvement (Day 7): 0 | BPRS hostility score (Day 7): 1 | BPRS mannerisms and posturing improvement (Day 7): 0 | BPRS mannerisms and posturing score (Day 7): 1 | BPRS motor retardation improvement (Day 7): 0 | BPRS motor retardation score (Day 7): 1 | BPRS somatic concern improvement (Day 7): 5 | BPRS somatic concern score (Day 7): 1 | BPRS suspiciousness improvement (Day 7): 0 | BPRS suspiciousness score (Day 7): 1 | BPRS tension improvement (Day 7): 5 | BPRS tension score (Day 7): 1 | BPRS uncooperativeness improvement (Day 7): 0 | BPRS uncooperativeness score (Day 7): 1 | BPRS unusual thought content improvement (Day 7): 0 | BPRS unusual thought content score (Day 7): 1 | MADRS apparent sadness improvement (Day 7): 5 | MADRS apparent sadness score (Day 7): 0 | MADRS concentration difficulties improvement (Day 7): 0 | MADRS concentration difficulties score (Day 7): 0 | MADRS inability to feel improvement (Day 7): 3 | MADRS inability to feel score (Day 7): 0 | MADRS inner tension improvement (Day 7): 4 | MADRS inner tension score (Day 7): 1 | MADRS lassitude improvement (Day 7): 3 | MADRS lassitude score (Day 7): 0 | MADRS pessimistic thoughts improvement (Day 7): 4 | MADRS pessimistic thoughts score (Day 7): 0 | MADRS reduced appetite improvement (Day 7): 0 | MADRS reduced appetite score (Day 7): 0 | MADRS reduced sleep improvement (Day 7): 5 | MADRS reduced sleep score (Day 7): 0 | MADRS reported sadness improvement (Day 7): 4 | MADRS reported sadness score (Day 7): 0 | MADRS suicidal thoughts improvement (Day 7): 0 | MADRS suicidal thoughts score (Day 7): 0 | BIMF Adjustment % improvement (Day 7 vs Day 0): 20.00% | BIMF Adjustment Δ (Day 7 vs Day 0): 1 | BIMF Infant Care % improvement (Day 7 vs Day 0): 0.00% | BIMF Infant Care Δ (Day 7 vs Day 0): 0 | BIMF Management % improvement (Day 7 vs Day 0): 18% | BIMF Management Δ (Day 7 vs Day 0): 5 | BIMF Mother-Child Interaction Δ (Day 7 vs Day 0): 2 | BIMF Psychological Well-being Δ (Day 7 vs Day 0): 9 | BIMF Self-Care % improvement (Day 7 vs Day 0): 44% | BIMF Self-Care Δ (Day 7 vs Day 0): 4 | BIMF Social Support Δ (Day 7 vs Day 0): 1 | BIMF item 1 Δ (Day 7 vs Day 0): 0 | BIMF item 2 Δ (Day 7 vs Day 0): 2 | BIMF item 3 Δ (Day 7 vs Day 0): 0 | BIMF item 4 Δ (Day 7 vs Day 0): 0 | BIMF item 5 Δ (Day 7 vs Day 0): 1 | BIMF item 6 Δ (Day 7 vs Day 0): 0 | BIMF item 7 Δ (Day 7 vs Day 0): 0 | BIMF item 8 Δ (Day 7 vs Day 0): 0 | BIMF item 9 Δ (Day 7 vs Day 0): 1 | BIMF item 10 Δ (Day 7 vs Day 0): 1 | BIMF item 11 Δ (Day 7 vs Day 0): 1 | BIMF item 12 Δ (Day 7 vs Day 0): 0 | BIMF item 13 Δ (Day 7 vs Day 0): 1 | BIMF item 14 Δ (Day 7 vs Day 0): 0 | BIMF item 15 Δ (Day 7 vs Day 0): 1 | BIMF item 16 Δ (Day 7 vs Day 0): 2 | BIMF item 17 Δ (Day 7 vs Day 0): 0 | BIMF item 18 Δ (Day 7 vs Day 0): 1 | BIMF item 19 Δ (Day 7 vs Day 0): 1 | BIMF item 20 Δ (Day 7 vs Day 0): −1 | BIMF total score Δ (Day 7 vs Day 0): 13 | time to clinical remission (after administration): ≤ 2 h | time to clinical response (after administration): ≤ 2 h | BPRS anxiety improvement (discharge): 6 | BPRS anxiety score (discharge): 1 | BPRS blunted affect improvement (discharge): 0 | BPRS blunted affect score (discharge): 1 | BPRS conceptual disorganization improvement (discharge): 0 | BPRS conceptual disorganization score (discharge): 1 | BPRS depressive mood improvement (discharge): 5 | BPRS depressive mood score (discharge): 1 | BPRS disorientation improvement (discharge): 0 | BPRS disorientation score (discharge): 1 | BPRS emotional withdrawal improvement (discharge): 4 | BPRS emotional withdrawal score (discharge): 1 | BPRS excitement improvement (discharge): 1 | BPRS excitement score (discharge): 1 | BPRS grandiosity improvement (discharge): 0 | BPRS grandiosity score (discharge): 1 | BPRS guilt feelings improvement (discharge): 5 | BPRS guilt feelings score (discharge): 1 | BPRS hallucinatory behaviour improvement (discharge): 0 | BPRS hallucinatory behaviour score (discharge): 1 | BPRS hostility improvement (discharge): 0 | BPRS hostility score (discharge): 1 | BPRS mannerisms and posturing improvement (discharge): 0 | BPRS mannerisms and posturing score (discharge): 1 | BPRS motor retardation improvement (discharge): 0 | BPRS motor retardation score (discharge): 1 | BPRS somatic concern improvement (discharge): 5 | BPRS somatic concern score (discharge): 1 | BPRS suspiciousness improvement (discharge): 0 | BPRS suspiciousness score (discharge): 1 | BPRS tension score (discharge): 1 | BPRS uncooperativeness improvement (discharge): 0 | BPRS uncooperativeness score (discharge): 1 | BPRS unusual thought content improvement (discharge): 0 | BPRS unusual thought content score (discharge): 1 | vital parameters (shortly after administration): temporary, clinically non-relevant increase in heart rate and blood pressure
